In patent US20250319088A1, “DAPRODUSTAT FOR REDUCING FATIGUE IN A SUBJECT WITH ANEMIA ASSOCIATED WITH CHRONIC KIDNEY DISEASE” (GlaxoSmithKline Intellectual Property (No.2) Limited, priority 2021, published 2025):

Experiments:
[1] = test system: non-dialysis patient with anaemia associated with chronic kidney disease; assay: Haemoglobin concentration change from baseline to evaluation period in 28 week placebo controlled clinical study; type: in vivo, human
Method: (§1) A 28 week randomized double blind placebo controlled clinical study in non-dialysis patient with anaemia associated with chronic kidney disease has been conducted. Participants were assessed for eligibility for inclusion in the study on the basis of the following (non-exhaustive) inclusion and exclusion criteria.
(§2) Enrolled participants were randomized 1:1 to receive either daprodustat or matching placebo tablets administered once daily.
(§3) The treatment doses for participants in both treatment arms were titrated based on haemoglobin concentration as assessed by HemoCue. Haemoglobin concentration by HemoCue is assessed on day 1, and at weeks 2, 4, 8, 12, 16, 20, 24 and 28. The available dose steps of daprodustat and placebo were 1 mg, 2 mg, 4 mg, 6, mg, 8 mg, 10 mg, 12 mg and 16 mg. Dose modifications for participants followed the dose adjustment algorithm to achieve and maintain haemoglobin concentration within the target range of 11.0 to 12.0 g/dL outlined in Table 2.
The primary objective of the trial was to compare the efficacy of daprodustat to placebo on mean change in haemoglobin concentration. The primary endpoint was the mean change in haemoglobin concentration between baseline (day 1) and the evaluation period (mean over week 24 to week 28 inclusive).
For the endpoints of mean change in haemoglobin and SF-36 Vitality Domain, an analysis of covariance model was used including covariates of baseline level, treatment, and region. The model provided point estimate and two-sided 95% CI for the treatment effect, together with a one-sided p-value. Significance was determined if the one-sided p-value was less than 0.025. The analysis population for the haemoglobin and SF-36 Vitality Domain endpoints was the intent-to-treat population. […]

[2] = test system: non-dialysis patient with anaemia associated with chronic kidney disease; assay: SF-36 Vitality Domain score in 28 week randomized double blind placebo controlled clinical study; type: in vivo, human; conditions: for Adjusted mean SF-36 Vitality Change from Baseline at Week 28 (SE): 0-100 score; for adjusted mean treatment difference (CI) in SF-36 Vitality: dapro-placebo
Method: as §1, §2, §3
(§4) The Short form SF-36 questionnaire was completed by participants on day 1 and on weeks 8, 12 and 28, and the CKD-AQ questionnaire was completed by participants on week −2 (i.e. during screening period) and on day 1 and weeks 8, 12 and 28.
(§5) • Mean change in the SF-36 Vitality Domain score (0-100) between baseline and week 28. This was a principal secondary endpoint and the study was appropriately powered for this endpoint. • Mean change from baseline by domain and overall symptoms score on the CKD-AQ (the study was not powered for this secondary endpoint, so only nominal significance can be assessed).
(§6) For the endpoints of mean change in haemoglobin and SF-36 Vitality Domain, an analysis of covariance model was used including covariates of baseline level, treatment, and region. The model provided point estimate and two-sided 95% CI for the treatment effect, together with a one-sided p-value. Significance was determined if the one-sided p-value was less than 0.025. The analysis population for the haemoglobin and SF-36 Vitality Domain endpoints was the intent-to-treat population. The analysis population for the Chronic Kidney Disease Anemia Questionnaire Tired/Low Energy/Weak Domain endpoint was the on treatment population and analysis was based on a mixed model repeated measures model fitted from baseline up to Week 28 with factors for treatment, time, region, baseline value, baseline value by time, and treatment by time interactions.
For the endpoints of mean change in haemoglobin and SF-36 Vitality Domain by subgroup, a similar model to that described above was used, adding covariates for subgroup and subgroup by treatment interaction term. The analysis population for these endpoints was the intent-to-treat population.
For endpoints of difference in SF-36 Vitality domain response rate, a Cochran-Mantel-Haenszel chi-squared test was used adjusting for treatment, baseline level, and region, to make comparisons between the treatment groups. Significance was determined if the one-sided p-value was less than 0.025. The analysis population for these endpoints was the intent-to-treat population.

[3] = test system: non-dialysis patient with anaemia associated with chronic kidney disease; assay: hsCRP levels by baseline hsCRP quartile in 28 week placebo controlled clinical study; type: in vivo, human
Method: as §1
In addition to analysis of the intention to treat population, several sub-group analyses were pre-specified including subgroups with baseline hsCRP quartiles of <0.9 mg/L, 0.9 to <2.6 mg/L, 2.60 to <6.60 mg/L and ≥6.60 mg/L.
The changes in hsCRP levels in each quartile are given below in Tables 5 to 8.

[4] = test system: non-dialysis patient with anaemia associated with chronic kidney disease; assay: CKD-AQ Tired/Low Energy/Weak Domain score in 28 week placebo controlled clinical study; type: in vivo, human; conditions: on treatment population
Method: as §1, §2, §4, §5, §6
A simple linear transformation was used to recalibrate the items to a 0-100 scale as outlined in Tables 11 and 12. […]

[5] = test system: patients with type 2 diabetes mellitus, non-dialysis dependent chronic kidney disease and anemia; conditions: at 25 weeks, cited from earlier work

O=C(O)CNC(=O)C1C(=O)N(C2CCCCC2)C(=O)N(C2CCCCC2)C1=O [Daprodustat, N-((1,3-dicyclohexylhexahydro-2,4,6-trioxopyrimidin-5-yl)carbonyl)glycine]
haemoglobin concentration compared to placebo over the treatment period ([1]; one sided superiority p-value <0.0001): significantly increased haemoglobin concentration | adjusted mean treatment difference in haemoglobin concentration ([1]; subjects having baseline haemoglobin >11 g/dL): 0.76 g/dL | adjusted mean treatment difference in haemoglobin concentration ([1]; subjects having baseline hsCRP ≥6.60 mg/L): 1.25 g/dL | SF-36 vitality domain scores for daprodustat and placebo ([2]; at week 12): not distinguishable | adjusted difference in response rate (dapro-placebo), ≥6.0 point SF-36 Vitality increase ([2]; baseline to week 28): 0.13 (0.04, 0.22) | Baseline SF-36 Vitality Sub-score Mean (SD) ([2]; baseline, intention to treat population, includes imputed values): 50.74 (21.175) | Adjusted Mean Treatment Difference (dapro − placebo) in SF-36 Vitality change from baseline at week 28 ([2]; intention to treat population): 5.36 | Adjusted mean SF-36 Vitality Change from Baseline at Week 28 (SE) ([2]; intention to treat population): 7.29 (1.121) | Adjusted mean SF-36 Vitality Change from Baseline at Week 28 (SE) ([2]; intention to treat population, listed as daprodustat): 7.29 | participants with a ≥6.0 point difference from baseline to week 28 in the SF-36 Vitality Sub-score ([2]; responder rate, intention to treat population): 58% | adjusted mean treatment difference (CI) in SF-36 Vitality ([2]; subgroup baseline hsCRP 0.9 to <2.6 mg/L): 1.09 (−4.86, 7.04) | adjusted mean SF-36 Vitality Change ([2]; subgroup baseline hsCRP 0.9 to <2.6 mg/L, week 28): 4.98 | adjusted mean treatment difference (CI) in SF-36 Vitality ([2]; subgroup baseline hsCRP 2.60 to <6.60 mg/L): 4.38 (−1.77, 10.53) | adjusted mean SF-36 Vitality Change ([2]; subgroup baseline hsCRP 2.60 to <6.60 mg/L, week 28): 7.92 | adjusted mean treatment difference (CI) in SF-36 Vitality ([2]; subgroup baseline hsCRP <0.9 mg/L): 10.0 (3.53, 16.47) | adjusted mean SF-36 Vitality Change ([2]; subgroup baseline hsCRP <0.9 mg/L, week 28): 9.84 | adjusted mean treatment difference (CI) in SF-36 Vitality ([2]; subgroup baseline hsCRP ≥6.60 mg/L): 7.71 (1.62, 13.80) | adjusted mean treatment difference (CI) in SF-36 Vitality ([2]; subgroup baseline hsCRP ≥6.60 mg/L, listed as daprodustat): 7.71 | adjusted mean SF-36 Vitality Change ([2]; subgroup baseline hsCRP ≥6.60 mg/L, week 28): 8.24 | adjusted mean treatment difference in SF-36 Vitality domain subscore ([2]; subjects having baseline haemoglobin <9 g/dL): 7.44 | adjusted mean treatment difference in SF-36 Vitality ([2]; subjects having baseline haemoglobin >11 g/dL, small number of subjects): −7.13 | adjusted mean treatment difference in SF-36 Vitality domain subscore ([2]; subjects having baseline haemoglobin ≥9 to <10 g/dL): 5.25 | adjusted mean treatment difference in SF-36 Vitality domain subscore ([2]; subjects having baseline haemoglobin ≥10 to ≤11 g/dL): 6.01 | Week 28 SF-36 Vitality Sub-score Mean (SD) ([2]; week 28, intention to treat population, includes imputed values): 58.40 (18.312) | Geometric mean hsCRP ([3]; baseline hsCRP 0.9-<2.60 mg/L, Baseline): 1.46 mg/L | Geometric mean hsCRP ([3]; baseline hsCRP 0.9-<2.60 mg/L, Day 1): 1.46 mg/L | Geometric mean hsCRP ([3]; baseline hsCRP 0.9-<2.60 mg/L, End of Treatment): 2.55 mg/L | Geometric mean hsCRP ([3]; baseline hsCRP 0.9-<2.60 mg/L, Week 28): 2.55 mg/L | Geometric mean hsCRP ([3]; baseline hsCRP 2.60-<6.60 mg/L, Baseline): 3.93 mg/L | Geometric mean hsCRP ([3]; baseline hsCRP 2.60-<6.60 mg/L, Day 1): 3.93 mg/L | Geometric mean hsCRP ([3]; baseline hsCRP 2.60-<6.60 mg/L, End of Treatment): 3.83 mg/L | Geometric mean hsCRP ([3]; baseline hsCRP 2.60-<6.60 mg/L, Week 28): 3.85 mg/L | Geometric mean hsCRP ([3]; baseline hsCRP <0.9 mg/L, Baseline): 0.48 mg/L | Geometric mean hsCRP ([3]; baseline hsCRP <0.9 mg/L, Day 1): 0.48 mg/L | Geometric mean hsCRP ([3]; baseline hsCRP <0.9 mg/L, End of Treatment): 0.86 mg/L | Geometric mean hsCRP ([3]; baseline hsCRP <0.9 mg/L, Week 28): 0.85 mg/L | Geometric mean hsCRP ([3]; baseline hsCRP ≥6.60 mg/L, Baseline): 16.96 mg/L | Geometric mean hsCRP ([3]; baseline hsCRP ≥6.60 mg/L, Day 1): 16.79 mg/L | Geometric mean hsCRP ([3]; baseline hsCRP ≥6.60 mg/L, End of Treatment): 8.92 mg/L | Geometric mean hsCRP ([3]; baseline hsCRP ≥6.60 mg/L, Week 28): 9.04 mg/L | change in hsCRP levels ([3]; subjects with high baseline hsCRP (≥6.60 mg/L), similar reductions in placebo group): large reductions in hsCRP levels | Adjusted Mean Treatment Difference (dapro − placebo) on CKD-AQ Tired/Low Energy/Weak Domain ([4]; baseline to week 28): 5.91 | Adjusted mean change from baseline to week 28 on CKD-AQ Tired/Low Energy/Weak Domain (SE) [4]: 8.72 (1.086) | Adjusted mean change from baseline to week 28 on CKD-AQ Tired/Low Energy/Weak Domain (SE) ([4]; listed as daprodustat): 8.72

darbepoetin alfa
mean change in SF-36 Vitality domain ([5]; versus 4.2±19 placebo, P=0.196): 5.3±20 | percentage of responders having a ≥5-point increase in SF-36 Vitality domain ([5]; versus 49% placebo, nominal P=0.027): 54%
